Results reported in patent publication US20100292185A1, “BETA-LACTAMASE INHIBITORS” (priority 2009, published 2010).
Counter-ions that a name gives are not always drawn. Like-named read-outs stand apart in the source and are kept apart here.

Assays:
SHV-5 β-lactamase = molecular target: T1, SHV-5 β-lactamase (Klebsiella pneumoniae, UniProt P0A3M1); assay: β-lactamase enzyme inhibition assay (nitrocefin substrate), SHV-5; type: biochemical
T1 construct: expressed as native untagged proteins; made in house; host or cells: E. coli BL21(DE3)
How it was run: (§1)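 Untagged recombinant β-lactamases from E. coli BL21(DE3), purified by ion exchange and gel filtration; 10 min, 37 °C preincubation with compound in PBS pH 7.0; nitrocefin 100 μM final; A486 kinetics, 10 min; IC50 from max rate vs control.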

CTX-M15 β-lactamase = molecular target: T2, CTX-M15 β-lactamase (Escherichia coli, UniProt Q9EXV5); assay: β-lactamase enzyme inhibition assay (nitrocefin substrate), CTXM-15; type: biochemical
T2 construct: expressed as native untagged proteins; made in house; host or cells: E. coli BL21(DE3)
How it was run: as §1

p99 AmpC β-lactamase = molecular target: T3, p99 AmpC β-lactamase (Enterobacter cloacae, UniProt P05364); assay: β-lactamase enzyme inhibition assay (nitrocefin substrate), P99 AmpC; type: biochemical
T3 construct: expressed as native untagged proteins; made in house; host or cells: E. coli BL21(DE3)
How it was run: as §1

KPC-2 β-lactamase = molecular target: T4, KPC-2 β-lactamase (Klebsiella pneumoniae, UniProt Q9F663); assay: β-lactamase enzyme inhibition assay (nitrocefin substrate), KPC-2; type: biochemical
T4 construct: expressed as native untagged proteins; made in house; host or cells: E. coli BL21(DE3)
How it was run: as §1

[1] = molecular target: T5, VIM-2 metallo β-lactamase (Pseudomonas aeruginosa, UniProt Q9K2N0); assay: β-lactamase enzyme inhibition assay (nitrocefin substrate), VIM-2; type: biochemical
T5 construct: made in house
How it was run: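 VIM-2 was expressed untagged in E. coli BL21(DE3) and purified by two Q sepharose anion-exchange runs plus gel filtration to >90% purity. Compounds at 100–0.005 μM in PBS pH 7.0 were preincubated with enzyme for 10 min at 37° C, then nitrocefin was added at 100 μM final. Hydrolysis was followed kinetically at 486 nm for 10 min; IC50 is the concentration halving the initial rate relative to no-inhibitor wells.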

OXA-23 β-lactamase = molecular target: T6, OXA-23 β-lactamase (Acinetobacter baumannii, UniProt Q9L4P2); assay: β-lactamase enzyme inhibition assay (nitrocefin substrate), OXA-23 crude extract; type: biochemical
T6 construct: crude β-lactamase extracts were prepared from 20 ml overnight cultures; endogenous in cells; host or cells: Acinetobacter baumannii cells containing OXA-23 (crude freeze-thaw extract)
How it was run: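 Crude enzyme came from freeze-thaw extracts of mid-log OXA-23-carrying A. baumannii grown in MH-II broth at 37° C. Inhibitors (100–0.005 μM in PBS pH 7.0) were preincubated with the enzyme for 10 min at 37° C, then 100 μM nitrocefin (final) was added and read kinetically at 486 nm for 10 min. IC50 was taken from initial hydrolysis rates relative to uninhibited controls.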

[2] = tested on: E. coli expressing the Class A ESBL SHV-5; assay: In vitro antibacterial assay of β-lactamase inhibition (broth microdilution MIC), E. coli SHV-5; type: cell-based; settings: in presence of Ceftazidime 8 μg/ml (Examples 1-56)
How it was run: (§2)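 Each strain, maintained under 50 μg/mL ampicillin selection, was exposed to twofold compound dilutions (final range 8 μg/mL to 0.015 μg/ml) combined with a β-lactam antibiotic in cation-adjusted Mueller Hinton broth. The MIC was judged visually following overnight (16-20 h) incubation at 37° C.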

[3] = tested on: K. pneumoniae expressing the Class A Extended Spectrum Beta-Lactamase (ESBL) CTX-M-15; assay: In vitro antibacterial assay of β-lactamase inhibition (broth microdilution MIC), K. pneumoniae CTX-M-15; type: cell-based; settings: in presence of Ceftazidime 8 μg/ml (Examples 1-56)
How it was run: as §2

[4] = tested on: E. cloacae expressing the Class C P99+; assay: In vitro antibacterial assay of β-lactamase inhibition (broth microdilution MIC), E. cloacae P99+; type: cell-based; settings: in presence of Ceftazidime 8 μg/ml (Examples 1-56)
How it was run: as §2

[5] = tested on: K. pneumoniae expressing the Class A carbapenemase KPC-2; assay: microbe, parasite or virus in culture; type: cell-based; settings: in presence of Ceftazidime 8 μg/ml (Examples 1-56)
How it was run: as §2

[6] = tested on: P. aeruginosa expressing the Class B metallo β-lactamase VIM-2; assay: In vitro antibacterial assay of β-lactamase inhibition (broth microdilution MIC), P. aeruginosa VIM-2; type: cell-based; settings: in presence of Ceftazidime 16 μg/mL (Examples 1-56)
How it was run: as §2

[7] = nitrocefin 100 μM, 37° C., PBS pH 7.0, read-out: P99 AmpC IC50
[8] = nitrocefin 100 μM, 37° C., PBS pH 7.0, read-out: VIM-2 IC50
[9] = nitrocefin 100 μM, 37° C., PBS pH 7.0, read-out: OXA-23 IC50

T1 sequence (P0A3M1 22-286): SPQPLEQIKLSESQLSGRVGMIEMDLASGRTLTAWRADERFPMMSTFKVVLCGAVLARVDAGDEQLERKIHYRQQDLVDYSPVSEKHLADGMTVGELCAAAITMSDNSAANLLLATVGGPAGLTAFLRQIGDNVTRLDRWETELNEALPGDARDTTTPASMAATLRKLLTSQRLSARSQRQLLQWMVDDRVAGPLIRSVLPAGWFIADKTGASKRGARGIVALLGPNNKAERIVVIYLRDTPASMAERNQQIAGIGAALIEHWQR
T3 sequence (P05364 21-381): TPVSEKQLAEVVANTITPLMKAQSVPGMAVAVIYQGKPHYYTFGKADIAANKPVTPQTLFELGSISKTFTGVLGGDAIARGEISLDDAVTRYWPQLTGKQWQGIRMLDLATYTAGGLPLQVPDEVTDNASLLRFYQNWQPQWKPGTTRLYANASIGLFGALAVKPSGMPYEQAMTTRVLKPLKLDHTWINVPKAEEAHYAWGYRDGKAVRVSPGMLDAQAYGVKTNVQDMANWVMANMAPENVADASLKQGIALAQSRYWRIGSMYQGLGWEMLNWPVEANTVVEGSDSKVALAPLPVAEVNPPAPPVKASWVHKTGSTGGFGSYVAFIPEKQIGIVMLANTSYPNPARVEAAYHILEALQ
T4 sequence (Q9F663 25-293 limits assumed): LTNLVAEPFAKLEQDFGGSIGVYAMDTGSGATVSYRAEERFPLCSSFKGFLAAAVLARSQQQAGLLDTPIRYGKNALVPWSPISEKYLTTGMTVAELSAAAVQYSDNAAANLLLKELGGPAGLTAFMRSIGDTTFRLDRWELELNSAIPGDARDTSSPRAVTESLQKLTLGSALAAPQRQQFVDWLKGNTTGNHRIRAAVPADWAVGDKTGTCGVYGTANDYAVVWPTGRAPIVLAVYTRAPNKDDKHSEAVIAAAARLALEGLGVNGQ
T2 sequence (Q9EXV5 entry or part of it): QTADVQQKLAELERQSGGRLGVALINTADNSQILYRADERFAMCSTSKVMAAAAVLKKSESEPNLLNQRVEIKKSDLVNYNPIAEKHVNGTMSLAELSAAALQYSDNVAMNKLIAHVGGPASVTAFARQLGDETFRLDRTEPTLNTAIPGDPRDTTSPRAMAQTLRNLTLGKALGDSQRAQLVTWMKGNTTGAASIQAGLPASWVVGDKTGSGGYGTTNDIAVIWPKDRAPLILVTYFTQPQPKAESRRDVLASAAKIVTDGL
T6 sequence (Q9L4P2 18-273): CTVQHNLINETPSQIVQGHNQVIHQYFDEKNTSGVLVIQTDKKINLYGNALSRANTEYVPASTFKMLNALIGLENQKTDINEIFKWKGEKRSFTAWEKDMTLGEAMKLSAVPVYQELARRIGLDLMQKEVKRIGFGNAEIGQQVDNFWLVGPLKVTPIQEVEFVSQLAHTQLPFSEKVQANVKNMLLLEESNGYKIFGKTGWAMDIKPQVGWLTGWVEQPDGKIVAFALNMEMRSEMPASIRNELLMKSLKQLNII

| Compound | IC50 (SHV-5 β-lactamase) | IC50 (CTX-M15 β-lactamase) | IC50 (p99 AmpC β-lactamase; [7]) | IC50 (KPC-2 β-lactamase) | IC50 [1, 8] | IC50 (OXA-23 β-lactamase; [9]) | MIC of example compound, E. coli SHV-5 [2] | MIC of example compound, K. pneumoniae CTX-M-15 [3] | MIC of example compound, E. cloacae P99+ [4] | MIC of example compound, K. pneumoniae KPC-2 [5] | MIC of example compound, P. aeruginosa VIM-2 [6] | IC50 (p99 AmpC β-lactamase) | IC50 [1] | IC50 (OXA-23 β-lactamase) | IC50 (SHV-5 β-lactamase; nitrocefin 100 μM, 37° C., PBS pH 7.0, read-out: SHV-5 IC50) | IC50 (CTX-M15 β-lactamase; nitrocefin 100 μM, 37° C., PBS pH 7.0, read-out: CTXM-15 IC50) | IC50 (KPC-2 β-lactamase; nitrocefin 100 μM, 37° C., PBS pH 7.0, read-out: KPC-2 IC50) |
| --- | --- | --- | --- | --- | --- | --- | --- | --- | --- | --- | --- | --- | --- | --- | --- | --- | --- |
| Cc1cc(NCc2cccc(C(=O)N[C@@H](Cc3cccc(C(=O)O)c3O)B(O)O)c2)no1 [Example 28, (1R)-[3-{(5-methyl-isoxazol-3-ylamino)-methyl}-benzoylamino]-(3-carboxy-2hydroxy)benzyl-methylboronic acid formate] | 15 nM | 0.7 nM | 0.2 nM | 4 nM | 304 nM | 9 nM | 8 µg/mL | 4 µg/mL | 2 µg/mL | 2 µg/mL | >8 µg/mL |  |  |  |  |  |  |
| Cl.O=C(N[C@@H](Cc1cccc(C(=O)O)c1O)B(O)O)c1ccc(CN2CCCC(C(=O)O)C2)cc1 (stereo partly drawn) [Example 12, (1R)-[4-(piperidine-3-carboxylic acid)-methyl]-benzoylamino-(3-carboxy-2-hydroxy)benzyl-methyl boronic acid hydrochloride] | 870 nM | 3 nM | 900 nM | 11 nM | 930 nM | > 1000 nM | 4 µg/mL | 1 µg/mL | 2 µg/mL | 0.03 µg/mL | >8 µg/mL |  |  |  |  |  |  |
| Br.CC(C)(O/N=C(\C(=O)N[C@@H](Cc1cccc(C(=O)O)c1O)B(O)O)c1csc(N)n1)C(=O)O [Example 48, 3-{2(R)-[2-(2-amino-thiazol-4-yl)-2-(1-carboxy-1-methyl-ethoxyimino)-acetylamino]-2-borono-ethyl}-2-hydroxy-benzoic acid hydrobromide] | 4 nM | 12 nM | 10 nM | 70 nM | > 1000 nM | 670 nM | >8 µg/mL | >8 µg/mL | >8 µg/mL | 2 µg/mL | >8 µg/mL |  |  |  |  |  |  |
| CC(=O)NCc1ccc(CC(=O)N[C@@H](Cc2cccc(C(=O)O)c2O)B(O)O)cc1 [Example 32, (1R)-[2-(4-acetylaminomethyl-phenyl)-acetylamino]-(3-carboxy-2hydroxy)benzyl-methylboronic acid] | 0.3 nM | 2 nM | 2 nM | 4 nM | > 1000 nM | 116 nM | 0.5 µg/mL | 0.5 µg/mL | >8 µg/mL | 4 µg/mL | >8 µg/mL |  |  |  |  |  |  |
| O=C(N[C@@H](Cc1cccc(C(=O)O)c1O)B(O)O)c1ccc(C[n+]2ccccc2)cc1 [Example 14, (1R)-[4-(pyridinium)-methyl]-benzoylamino-(3-carboxy-2-hydroxy)benzyl-methyl boronic acid chloride] | > 1000 nM | 1 nM |  | 21 nM |  |  | >8 µg/mL | >8 µg/mL | 0.5 µg/mL | 0.01 µg/mL | >8 µg/mL | 29 nM | 360 nM | > 1000 nM |  |  |  |
| CC[N+](CC)(CC)Cc1ccc(C(=O)N[C@@H](Cc2cccc(C(=O)O)c2O)B(O)O)cc1 [Example 13, (1R)-(4-(triethylammonium)methyl)-benzoylamino-(3-carboxy-2-hydroxy)benzyl-methyl boronic acid bromide] | > 1000 nM | 14 nM |  | 3 nM |  |  | >8 µg/mL | >8 µg/mL | >8 µg/mL | 0.25 µg/mL | >8 µg/mL | 4 nM | 340 nM | > 1000 nM |  |  |  |
| C/C(=N/O)C(=O)N[C@@H](Cc1cccc(C(=O)O)c1O)B(O)O [Example 54, 3-[2(R)-(2-hydroxyimino-propionylamino)-2-borono-ethyl]-2-hydroxy-benzoic acid] | 48 nM | 5 nM | 2 nM | 10 nM | > 1000 nM | 494 nM | 2 µg/mL | 1 µg/mL | 1 µg/mL | 0.03 µg/mL | >8 µg/mL |  |  |  |  |  |  |
| C[N+]1(Cc2ccc(CC(=O)N[C@@H](Cc3cccc(C(=O)O)c3O)B(O)O)cc2)CCOCC1 [Example 41, 4-(4-{[2-(3-carboxy-2-hydroxy-phenyl)-1-borono-ethylcarbamoyl]-methyl}-benzyl)-4-methyl-morpholin-4-ium formate] | 4 nM | 2 nM |  | 10 nM | > 1000 nM | 201 nM | 0.5 µg/mL | 0.25 µg/mL | 1 µg/mL | 0.03 µg/mL | >8 µg/mL | 20 nM |  |  |  |  |  |
| (2R)-3-[(2-[(2-chloro-pyridin-4-yl-acetyl)-amino]-2-borono-ethyl]-2-hydroxy-benzoic acid hydrochloride [Example 47] |  |  | 5 nM |  | > 1000 nM | 132 nM | 0.25 µg/mL | 0.25 µg/mL | 1 µg/mL | 0.03 µg/mL | >8 µg/mL |  |  |  | 1 nM | 2 nM | 2 nM |
| Cl.Nc1cncc(C(=O)N[C@@H](Cc2cccc(C(=O)O)c2O)B(O)O)c1 [Example 44, (2R)-3-{[2-(5-amino-pyridine-3-carbonyl)-amino]-2-borono-ethyl}-2-hydroxy-benzoic acid hydrochloride] | 70 nM | 2 nM | 1 nM | 30 nM | 690 nM | 120 nM | 1 µg/mL | 0.25 µg/mL | 1 µg/mL | 0.015 µg/mL | >8 µg/mL |  |  |  |  |  |  |
| Cl.NCc1ccc(C(=O)N[C@@H](Cc2cccc(C(=O)O)c2O)B(O)O)cc1 [Example 2, 2(R)-3-[2-(4-(Aminomethyl)benzoylamino)-2-borono-ethyl]-2-hydroxy-benzoic acid hydrochloride] | > 1000 nM | 2 nM | 3 nM | 13 nM | 22 nM | > 1000 nM | 8 µg/mL | 2 µg/mL | 0.25 µg/mL | 0.015 µg/mL | 8 µg/mL |  |  |  |  |  |  |
